In PMC9637864 (Current Research in Toxicology, 2022):
Entries after “also recorded” stand apart in the source; their conditions may differ. Like-named read-outs stand apart in the source and are kept apart here.

Assays:
human FXRα [1] = target: T1, human FXRα (Homo sapiens, UniProt Q96RI1); assay: cell-based
T1 sequence (Q96RI1 1-486): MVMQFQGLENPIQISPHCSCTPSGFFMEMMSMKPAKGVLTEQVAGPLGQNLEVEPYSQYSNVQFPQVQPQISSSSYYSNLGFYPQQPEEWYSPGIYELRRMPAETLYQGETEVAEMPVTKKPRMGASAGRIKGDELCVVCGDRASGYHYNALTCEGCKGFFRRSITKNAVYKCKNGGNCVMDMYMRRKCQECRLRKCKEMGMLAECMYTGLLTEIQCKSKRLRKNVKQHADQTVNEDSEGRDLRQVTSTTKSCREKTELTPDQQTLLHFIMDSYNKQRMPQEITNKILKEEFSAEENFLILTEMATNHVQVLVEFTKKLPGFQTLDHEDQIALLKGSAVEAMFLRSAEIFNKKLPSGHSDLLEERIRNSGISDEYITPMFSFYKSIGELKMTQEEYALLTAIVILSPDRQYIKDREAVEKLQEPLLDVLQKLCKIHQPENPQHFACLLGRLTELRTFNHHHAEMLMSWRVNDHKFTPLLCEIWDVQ
T1 sequence (P19793 1-462 partner): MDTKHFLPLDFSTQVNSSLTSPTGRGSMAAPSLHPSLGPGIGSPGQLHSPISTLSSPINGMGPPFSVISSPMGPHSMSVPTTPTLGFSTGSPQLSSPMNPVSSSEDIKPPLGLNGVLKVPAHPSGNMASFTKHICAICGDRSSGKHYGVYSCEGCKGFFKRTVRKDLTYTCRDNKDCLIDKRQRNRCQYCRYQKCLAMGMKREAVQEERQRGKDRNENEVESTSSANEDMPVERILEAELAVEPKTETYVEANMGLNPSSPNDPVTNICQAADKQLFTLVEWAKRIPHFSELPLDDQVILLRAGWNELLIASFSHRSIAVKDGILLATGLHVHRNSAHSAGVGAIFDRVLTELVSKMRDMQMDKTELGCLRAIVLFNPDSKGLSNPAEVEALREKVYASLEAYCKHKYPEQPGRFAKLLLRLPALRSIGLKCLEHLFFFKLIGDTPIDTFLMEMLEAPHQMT

medaka FXRα2 [2] = target: T2, medaka FXRα2 (Oryzias latipes, UniProt H2M6M7); assay: Transient transactivation luciferase assay in HEK293T cells, antagonist mode; format: cell-based; conditions: Antagonists, in the presence of GW4064
T2 sequence (H2M6M7 1-485): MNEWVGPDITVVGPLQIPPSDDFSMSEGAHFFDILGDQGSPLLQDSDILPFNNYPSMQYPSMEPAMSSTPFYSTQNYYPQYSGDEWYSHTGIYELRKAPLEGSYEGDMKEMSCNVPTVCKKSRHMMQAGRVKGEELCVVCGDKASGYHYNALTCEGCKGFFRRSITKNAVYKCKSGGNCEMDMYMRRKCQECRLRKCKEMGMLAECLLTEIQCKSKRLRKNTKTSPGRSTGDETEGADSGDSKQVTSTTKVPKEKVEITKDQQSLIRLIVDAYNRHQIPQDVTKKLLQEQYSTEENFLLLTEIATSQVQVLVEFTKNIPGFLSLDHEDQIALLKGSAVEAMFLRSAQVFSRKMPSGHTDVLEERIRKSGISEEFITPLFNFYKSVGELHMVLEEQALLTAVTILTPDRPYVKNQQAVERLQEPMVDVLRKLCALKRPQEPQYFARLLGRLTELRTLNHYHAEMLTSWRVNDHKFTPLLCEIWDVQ

Human FXRa [3] = conditions: Antagonists, cited from earlier work; for AC50: Tox21 qHTS, ref US EPA CompTox Chemicals Dashboard; for Tox21 Results Human FXRa Activity Human FXRa: Hsu et al. 2016
human FXRα [4] = target: T1, human FXRα; format: cell-based
medaka FXRα2 [5] = target: T2, medaka FXRα2; assay: Transient transactivation luciferase assay in HEK293T cells, agonist mode; format: cell-based
Human FXRa [6] = conditions: Agonists, cited from earlier work
medaka larvae = assay: Toxicity to medaka larvae during in vivo exposure; design: species or system Medaka (Oryzias latipes); conditions: between 0.5 and 10 µM
[7] = target: NR box of human PGC1α fused to the yeast Gal4 DNA-binding domain (pM-PGC1α) (human) (UniProt Q9UBK2); assay: two-hybrid
[8] = target: NR box of human PGC1α fused to the yeast Gal4 DNA-binding domain (pM-PGC1α) (human) (UniProt Q9UBK2); assay: two-hybrid; remark: listed apart in the source
[9] = read-out: Current Study Human FXRa AC50
[10] = Tox21 qHTS, ref US EPA CompTox Chemicals Dashboard
[11] = Agonists, HEK293T, 24 h, listed as maleic hydrazide
[12] = Agonists, HEK293T, 24 h, listed as prometon

Chain of NR box of human PGC1α fused to the yeast Gal4 DNA-binding domain (pM-PGC1α) (human) (Q9UBK2 whole entry, the tested form may be a part): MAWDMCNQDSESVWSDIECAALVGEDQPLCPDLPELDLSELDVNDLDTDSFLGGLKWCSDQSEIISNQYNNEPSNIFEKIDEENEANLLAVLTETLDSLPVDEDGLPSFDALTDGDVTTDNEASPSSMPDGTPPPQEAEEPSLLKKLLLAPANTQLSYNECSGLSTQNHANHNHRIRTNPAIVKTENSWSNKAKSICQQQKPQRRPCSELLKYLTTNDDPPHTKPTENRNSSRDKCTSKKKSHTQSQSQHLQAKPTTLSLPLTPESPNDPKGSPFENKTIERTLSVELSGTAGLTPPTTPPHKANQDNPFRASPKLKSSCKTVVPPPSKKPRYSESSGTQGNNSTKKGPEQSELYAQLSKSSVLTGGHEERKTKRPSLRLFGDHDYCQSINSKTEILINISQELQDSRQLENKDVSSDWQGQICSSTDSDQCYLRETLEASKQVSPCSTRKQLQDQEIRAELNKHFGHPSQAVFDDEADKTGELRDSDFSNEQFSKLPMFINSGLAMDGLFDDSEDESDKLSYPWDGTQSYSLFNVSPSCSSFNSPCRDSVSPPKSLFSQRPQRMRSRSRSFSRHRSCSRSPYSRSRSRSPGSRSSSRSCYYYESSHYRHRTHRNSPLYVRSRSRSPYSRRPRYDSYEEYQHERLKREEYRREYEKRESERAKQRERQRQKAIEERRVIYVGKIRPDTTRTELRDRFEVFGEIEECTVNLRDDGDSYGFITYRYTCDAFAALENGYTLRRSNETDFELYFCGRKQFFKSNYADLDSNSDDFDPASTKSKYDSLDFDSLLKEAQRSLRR

With `Cc1c(COC(=O)[C@@H]2[C@H](/C=C(\Cl)C(F)(F)F)C2(C)C)cccc1-c1ccccc1` (racemic) [Bifenthrin] the AC50 (human FXRα [1]) was 34.6 µM, the “Current Study Human FXRa Activity Human FXRa” value (human FXRα [1]) was “Active” and the EC50 (human FXRα [1]) was 34.6 µM. For the same molecule, the “Current Study Medaka FXRa2 Activity Medaka FXRa2” value (medaka FXRα2 [2]) was “exhibited antagonist activity; also recorded: Active”, the AC50 (Human FXRa [3]) was 13.3 µM and the “Tox21 Results Human FXRa Activity Human FXRa” value (Human FXRa [3]; ref Tox21 dataset) was “Active”. For the same molecule, the “Tox21 Results Human FXRa AC50” value (Human FXRa [3]; ref Tox21 dataset) was 4.96 µM.

For `CCC(C)(c1ccc(O)cc1)c1ccc(O)cc1` [Bisphenol B], the AC50 (human FXRα [1]) was 11.9 µM, the “Current Study Human FXRa Activity Human FXRa” value (human FXRα [1]) was “Active” and the EC50 (human FXRα [1]) was 11.9 µM. The “Current Study Medaka FXRa2 Activity Medaka FXRa2” value (medaka FXRα2 [2]) was “Active”, the “Current Study Medaka FXRa2 Activity Medaka FXRa2” value (medaka FXRα2 [2]; listed as bisphenol B) was “exhibited antagonist activity” and the AC50 (Human FXRa [3]) was 57.2 µM. For the same molecule, the “Tox21 Results Human FXRa Activity Human FXRa” value (Human FXRa [3]; ref Tox21 dataset) was “Active”.

In the case of `C[C@@H]1C[C@H]2O[C@@]3(O[C@@H]2C(C)(C)O)[C@H](O)[C@@]2(C)[C@@H]4CC[C@H]5C(C)(C)[C@@H](O[C@@H]6OC[C@@H](O)[C@H](O)[C@H]6O)CC[C@@]56C[C@@]46CC[C@]2(C)[C@@H]13` [Cimicifugoside], the “Current Study Human FXRa Activity Human FXRa” value (human FXRα [4]) is reported as “Active”, the AC50 (human FXRα [4]; [9]) is reported as 9.8 µM and the “Current Study Medaka FXRa2 Activity Medaka FXRa2” value (medaka FXRα2 [5]; Agonists, HEK293T, 24 h) is reported as “Active”. The AC50 (medaka FXRα2 [5]; read-out: Current Study Medaka FXRa2 AC50, Agonists, HEK293T, 24 h) was over 100 µM, the AC50 (Human FXRa [6]; [10]) was 5 µM and the “Activity Decision” value (Human FXRa [6]; [10]) was “Active”. For the same molecule, the “Tox21 Results Human FXRa AC50” value (Human FXRa [6]; ref Tox21 dataset) was 5.52 µM and the “Tox21 Results Human FXRa Activity Human FXRa” value (Human FXRa [6]; ref Tox21 dataset) was “Active”.

In the case of `COc1cc2c(c(OC)c1OC)-c1ccc(OC)c(=O)cc1[C@@H](NC(C)=O)CC2` [Colchicine, reference compound], the “Current Study Human FXRa Activity Human FXRa” value (human FXRα [1]) is listed as “Inactive”, the “Current Study Medaka FXRa2 Activity Medaka FXRa2” value (medaka FXRα2 [2]) is listed as “Inactive” and the “Tox21 Results Human FXRa Activity Human FXRa” value (Human FXRa [3]; ref Tox21 dataset) is listed as “Inactive”.

`CC(C)c1onc(-c2c(Cl)cccc2Cl)c1COc1ccc(C=Cc2cccc(C(=O)O)c2)c(Cl)c1` [GW4064, 3-(2,6-Dichlorophenyl)-4-(3′-carboxy-2-chlorostilben-4-yl) oxymethyl-5-isopropylisoxazole, reference compound] gave an EC50 (medaka FXRα2 [5]) of 0.269 µM.

With `O=c1ccc(=O)[nH][nH]1` [Maleic hydrazide] the “Current Study Human FXRa Activity Human FXRa” value (human FXRα [4]; Agonists, HEK293T, 24 h) was “Inactive”, the “Current Study Human FXRa Activity Human FXRa” value (human FXRα [4]; [11]) was “confirmed inactive” and the “Current Study Medaka FXRa2 Activity Medaka FXRa2” value (medaka FXRα2 [5]; Agonists, HEK293T, 24 h) was “Inactive”. The “Current Study Medaka FXRa2 Activity Medaka FXRa2” value (medaka FXRα2 [5]; [11]) was “confirmed as inactive”, the “cytotoxicity / toxicity to medaka larvae in agonist exposures” value (shortened to “cytotoxicity / toxicity to medaka larvae”) (medaka larvae) was “significant cytotoxicity” and the “Activity Decision” value (Human FXRa [6]; [10]) was “Inactive”. For the same molecule, the “Tox21 Results Human FXRa Activity Human FXRa” value (Human FXRa [6]; ref Tox21 dataset) was “Inactive”.

With `CO/N=C1\C[C@]2(C[C@@H]3C[C@@H](C/C=C(\C)C[C@@H](C)/C=C/C=C4\CO[C@@H]5[C@H](O)C(C)=C[C@@H](C(=O)O3)[C@]45O)O2)O[C@H](/C(C)=C/C(C)C)[C@H]1C` [Moxidectin, reference compound] the AC50 (human FXRα [1]) was 12.5 µM, the “Current Study Human FXRa Activity Human FXRa” value (human FXRα [1]) was “Active” and the EC50 (human FXRα [1]) was 12.5 µM. For the same molecule, the “Current Study Medaka FXRa2 Activity Medaka FXRa2” value (medaka FXRα2 [2]) was “Active” and the “Tox21 Results Human FXRa Activity Human FXRa” value (Human FXRa [3]; ref Tox21 dataset) was “Active/Inactive”.

For `O=C1OC(c2ccc(O)cc2)(c2ccc(O)cc2)c2ccccc21` [Phenolphthalein], the “cytotoxicity / toxicity to medaka larvae” value (medaka larvae) was “significant cytotoxicity; also recorded: toxic to medaka larvae”.

With `COc1nc(NC(C)C)nc(NC(C)C)n1` [Prometon] the “Current Study Human FXRa Activity Human FXRa” value (human FXRα [4]; Agonists, HEK293T, 24 h) was “Inactive”, the “Current Study Human FXRa Activity Human FXRa” value (human FXRα [4]; [12]) was “confirmed inactive” and the “Current Study Medaka FXRa2 Activity Medaka FXRa2” value (medaka FXRα2 [5]; Agonists, HEK293T, 24 h) was “Inactive”. For the same molecule, the “Current Study Medaka FXRa2 Activity Medaka FXRa2” value (medaka FXRα2 [5]; [12]) was “confirmed as inactive”, the “Activity Decision” value (Human FXRa [6]; [10]) was “Inactive” and the “Tox21 Results Human FXRa Activity Human FXRa” value (Human FXRa [6]; ref Tox21 dataset) was “Inactive”.

With `CCCCCCCC(=O)OCC(COC(=O)CCCCCCC)OC(=O)CCCCCCC` [Tricaprylin] the “Current Study Human FXRa Activity Human FXRa” value (human FXRα [1]) was “Inactive”, the “Current Study Medaka FXRa2 Activity Medaka FXRa2” value (medaka FXRα2 [2]) was “Active” and the “Current Study Medaka FXRa2 Activity Medaka FXRa2” value (medaka FXRα2 [2]; listed as tricaprylin) was “exhibited antagonist activity”. The “Tox21 Results Human FXRa Activity Human FXRa” value (Human FXRa [3]; ref Tox21 dataset) was “Inactive”.

With `c1ccc(P(c2ccccc2)c2ccccc2)cc1` [Triphenylphosphine] the “cytotoxicity / toxicity to medaka larvae” value (medaka larvae) was “significant cytotoxicity”.

For Ivermectin [reference compound], the “Current Study Human FXRa Activity Human FXRa” value (human FXRα [1]) was “Active”, the AC50 (human FXRα [1]; [9]) was 2.35 µM and the “Current Study Medaka FXRa2 Activity Medaka FXRa2” value (medaka FXRα2 [2]) was “Active”. For the same molecule, the AC50 (medaka FXRα2 [2]; read-out: Current Study Medaka FXRa2 AC50) was 11.2 µM and the “Tox21 Results Human FXRa Activity Human FXRa” value (Human FXRa [3]; ref Tox21 dataset) was “Active”.

“VP16 activation domain fused to medaka FXRα2 (pVP16-mFXRα2) (receptor)” showed a recruitment with moxidectin, percent (reference as for human FXRα: GW4064 alone) [7] of 126%.

B1: VP16 activation domain fused to full-length human FXRα (pVP16-hFXRα) (receptor)
chain: T1 sequence (Q96RI1 1-486)
B1 showed a recruitment with moxidectin and GW4064, percent of that with GW4064 alone [8] of 132%.
